Laboratory results taken from patent EP1861713B1, “METHOD OF SCREENING PET TRACERS FOR EARLY CANCER THEREAPY MONITORING” (GE Healthcare Limited, priority 2005, dated 2006).
Entries after “also recorded” stand apart in the source; their conditions may differ. Where two headings read alike, the source gives them in different places.

Key:
[1] = system: MCF-7 human breast cancer line; assay: PET tracer uptake in multicellular tumor spheroids (MTS) after anticancer treatment; type: cell-based; settings: MCF-7 MTSs; 1 and 10µM; 3 and 5 days of treatment; normalized to control
Protocol: Cells of the MCF-7 human breast cancer line (European Collection of Cell Culture) were grown in MEM/EBSS supplemented with 10% FCS, 1mM sodium pyruvate, 2mM L-glutamine, 1% non-essential amino acid and 5% penicillin (Tamro).
After 1 h the medium was renewed.
In each experimental set-up four MTSs in one 24-well plate were referred to as one group. The groups included control (without treatment agent) and five different treatments with same concentration.
The response to each anticancer treatment was evaluated by measurement of the tracer uptake and total volume of the MTSs after 3 and 5 days of treatment.
Images of MTSs were recorded using a Nikon Colorpix 4500 camera mounted on an inverted Zeiss microscope before Tracer incubation. The acquired data were analyzed by SASDM.
To monitor the effect of each anti-cancer treatment five established PET-tracers; [1-^11C]Acetate, [^11C]Choline, [^11C]Methionine, [^18F]3'-Deoxy-3'-fluorthymifine and 2-[^18F]Fluor-2-deoxyglucose were utilized.
The aggregates were incubated for 30 min (for ^18F-labled tracers) and 50 min (for ^11C-labled tracers) at 37°C with 0.5 ml medium per well containing 3MBq Tracer, and then washed 3x5 min (for ^18F-labled tracers) and 3x3 min (for ^11C-labled tracers) with medium (1 ml/well).
The Tracer-uptake in MTS was defined as: Total uptake = (Act conc.(Bq/ml)of MTS)/(Act conc.(Bq/ml)of reference) [formula]
Each experiment set-up was repeated three times.

[2] = system: MCF-7 human breast cancer line; assay: [18F]FDG uptake per viable volume of MTS after anticancer treatment (MCF-7); type: cell-based; settings: MCF-7 MTSs; for [^18F]FDG uptake per viable volume: highest dose of 1 µM
Protocol: (§1) • a. Cells of the MCF-7 human breast cancer line (European Collection of Cell Culture) were grown in MEM/EBSS supplemented with 10% FCS, 1mM sodium pyruvate, 2mM L-glutamine, 1% non-essential amino acid and 5% penicillin (Tamro). […] Cells of the BT474 human breast cancer line (American Type Culture Collection) were grown in DMEM supplemented with 10% FCS, 1mM sodium pyruvate, and 5% penicillin (Tamro).
(§2) The MTSs were incubated for 50 min at 37°C with 0.5 ml medium per well containing 3MBq [^18F]FDG[21], and then washed 3x5 min with medium (1 ml/well).
For the MCF-7 cell line, each group included 6 replicates and the experiments were repeated twice.
The response to each anticancer treatment was evaluated by measurement of the [^18F]FDG uptake and viable volume of the MTSs after 2 and 3 days of treatment.

[3] = system: BT474 human breast cancer line; assay: [18F]FDG uptake per viable volume of MTS after anticancer treatment (BT474); settings: BT474 MTSs
MTSs of MCF-7 cell line = assay: Basic [18F]FDG uptake experiments in MTS (competition, inhibition, insulin); type: cell-based, human
Protocol: as §1, §2
To ensure the physiological validity of [^18F]FDG uptake in MTS, a number of basic experiments were performed: • Temperature dependence of [^18F]FDG uptake. The [^18F]FDG uptake experiments were performed with two different incubation temperatures: 4°C and 37°C. • Competition Experiment. Glucose concentration in the growing culture medium was 5 mM. To perform the competition experiment, unlabeled extra glucose was diluted in the growing culture medium with a concentration of 0mM (for the control group), 5mM, 10mM and 20mM. Culture medium was replaced by glucose/[^18F]FDG-containing culture medium. After 50 min incubation the [^18F]FDG uptake was measured. • Inhibition Experiment. The MTSs were pre-incubated with four different concentrations of an inhibitor of glucose transport, Cytochalasin-B; 0µM (for control group), 10µM, 25µM and 50µM followed by 50 min [^18F]FDG incubation. • Insulin-mediated [^18F]FDG uptake. The MTSs were pre-incubated with or without (control group) 10µM insulin followed by 50 min [^18F]FDG incubation.
It is noticeable that the basic experiments were performed only on MTSs of MCF-7 cell line. In each experimental set-up six MTSs in one 24-well plate were referred to as one group and the experiments were repeated three times.

## CC/C(=C(\c1ccccc1)c1ccc(OCCN(C)C)cc1)c1ccccc1 [Tamoxifen]
[1]
  ACE-uptake: increase
  FLT-uptake: decreased
  MET-uptake: decrease
[2]
  [^18F]FDG uptake per viable volume: reduced

## CC(=O)O[C@@]12CO[C@@H]1C[C@H](O)[C@@]1(C)C(=O)[C@H](O)C3=C(C)[C@@H](OC(=O)[C@H](O)[C@@H](NC(=O)OC(C)(C)C)c4ccccc4)C[C@@](O)([C@@H](OC(=O)c4ccccc4)[C@H]21)C3(C)C [Docetaxel]
[1]
  CHO-uptake: increase
  FLT-uptake: decreased
  MET-uptake: increase

## CC(=O)O[C@H]1C(=O)[C@@]2(C)[C@H]([C@H](OC(=O)c3ccccc3)[C@]3(O)C[C@H](OC(=O)[C@H](O)[C@@H](NC(=O)c4ccccc4)c4ccccc4)C(C)=C1C3(C)C)[C@]1(OC(C)=O)CO[C@@H]1C[C@@H]2O [Paclitaxel]
[1]
  ACE-uptake: approximately as non-treated MTSs
  FDG-uptake: approximately as non-treated MTSs
  FLT-uptake: significant decrease; also recorded: decreased
[2]; 10nM, 100nM, 1µM, 2 and 3 days, overall
  [^18F]FDG uptake per viable volume (glucose transport): more moderate
[3]; lowest dose and shorter treatment time
  glucose transport per viable volume: reduced

## OC[C@H]1OC(O)[C@H](O)[C@@H](O)[C@@H]1O (stereo partly drawn) [glucose]
MTSs of MCF-7 cell line; Homo sapiens, MCF7, 50 min, unlabeled extra glucose 0, 5, 10, 20mM added to medium (5 mM glucose), 50 min incubation, read-out: concentration inducing a 50% reduction of [^18F]FDG uptake compared to control
  IC50: 10 mM
MTSs of MCF-7 cell line; increasing concentration of glucose added to incubation medium
  [^18F]FDG uptake in MTSs: gradually decreased

## Cc1ccc(NC(=O)c2ccc(CN3CCN(C)CC3)cc2)cc1Nc1nccc(-c2cccnc2)n1 [Imatinib]
[1]
  CHO-uptake: decrease
  FLT-uptake: increase

## C=C1[C@@H](C)[C@H]2[C@H](Cc3ccccc3)NC(=O)[C@]23OC(=O)/C=C/[C@H](O)CCC[C@@H](C)C/C=C/[C@H]3[C@@H]1O [Cytochalasin B]
MTSs of MCF-7 cell line; glucose-transport inhibitor added to incubation medium, 10-50µM
  [^18F]FDG uptake: significantly decreased
MTSs of MCF-7 cell line; pre-incubation 0, 10, 25, 50µM, then 50 min [18F]FDG incubation, read-out: 50% inhibition of [^18F]FDG uptake
  IC50: 0.012 mM

## COc1cccc2c1C(=O)c1c(O)c3c(c(O)c1C2=O)C[C@@](O)(C(=O)CO)C[C@@H]3O[C@H]1C[C@H](N)[C@H](O)[C@H](C)O1 [Doxorubicin]
[1]
  ACE-uptake: less decrease
  FDG-uptake: less decrease
  FLT-uptake: considerable FLT-reduction; also recorded: decreased
[2]; at the highest dose
  reduction of [^18F]FDG uptake per viable volume: 25%
[2]
  [^18F]FDG uptake per viable volume: decreased
[3]; at the highest dose
  [^18F]FDG uptake per viable volume: reduced; also recorded: decreased
